Experimental data: article PMC10345685, “Anthocyanin and proanthocyanidin from Aronia melanocarpa (Michx.) Ell.: Purification, fractionation, and enzyme inhibition” (Food Science & Nutrition, 2023)
Where two headings read alike, the source gives them in different places.

Experiments:
Lipase = details: cited from earlier work
[1] = biological target: T1, Lipase from human porcine pancreas (Sus scrofa, UniProt P00591); experiment: Lipase inhibition (pNP laurate substrate); type: biochemical; details: comparison among the anthocyanins / proanthocyanidin fractions
T1 construct: purchased Sigma‐Aldrich, Inc (Shanghai, China)
T1 sequence (P00591 1-450): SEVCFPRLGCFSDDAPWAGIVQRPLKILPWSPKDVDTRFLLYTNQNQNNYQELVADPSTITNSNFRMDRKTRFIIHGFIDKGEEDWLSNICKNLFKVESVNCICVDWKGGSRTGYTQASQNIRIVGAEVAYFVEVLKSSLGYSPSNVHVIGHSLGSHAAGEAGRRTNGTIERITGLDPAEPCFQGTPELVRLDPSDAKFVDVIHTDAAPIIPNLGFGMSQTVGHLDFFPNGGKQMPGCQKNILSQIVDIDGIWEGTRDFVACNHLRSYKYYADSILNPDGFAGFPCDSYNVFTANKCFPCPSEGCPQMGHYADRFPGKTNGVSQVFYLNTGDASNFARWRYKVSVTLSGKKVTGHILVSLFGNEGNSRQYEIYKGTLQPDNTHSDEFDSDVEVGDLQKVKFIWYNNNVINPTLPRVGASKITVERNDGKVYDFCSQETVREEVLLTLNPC
Text: (§1) All the chemicals used for analyses were of analytical grade and high‐performance liquid chromatography (HPLC) chemicals were of HPLC purity and were all purchased from Sinopharm Chemical Reagent Co., Ltd (Shanghai, China). Lipase from […] porcine pancreas (EC 3.1.1.3), α‐amylase from human pancreas (EC 3.2.1.1), and α‐glucosidase from Bacillus stearothermophilus (EC 3.2.1.20) were obtained from Sigma‐Aldrich, Inc (Shanghai, China). Standards of cyanidin 3‐galactoside, cyanidin 3‐arabinoside, cyanidin 3‐xyloside, cyanidin 3‐glucoside, catechin, and epicatechin were obtained from Sigma‐Aldrich, Inc. (Shanghai, China). Amberlite XAD7HP, Sephadex LH‐20, and ENVI 18 DSK SPE were obtained from Sigma‐Aldrich, Inc (Shanghai, China).
The lipase inhibitory activity was determined according to the method described by Tan et al. ([2017]) with modifications (Table 3). Three hundred and fifty μL phosphate buffer (0.05 M, pH 7.6), 150 μL of porcine lipase enzyme solution (50 mg/mL), and 50 μL of fractionated compounds were added in a centrifuge tube (1.5 mL size) and incubated at 37°C for exactly 10 min. Then, 450 μL pNP laurate substrate was added to the reaction mixture and blended, followed by incubation at 37°C for 120 min without light. The reaction mixture was centrifuged for 10 min at 8000 g and the supernatant of 200 μL was taken into a 96‐well plate to determine the absorbance at 405 nm. The percentage inhibition was calculated using Equation 4. Lipase inhibitory activity was measured at five different concentrations, and a logarithmic regression curve was established to calculate IC50 values (Tan et al., [2017]). (4) Lipase inhibitory activity%=1−As−Ab/At−Ac×100%

α‐Glucosidase = details: cited from earlier work
α‐Amylase = details: cited from earlier work
[2] = biological target: T2, α‐amylase from human pancreas (Homo sapiens, UniProt P04746); experiment: α‐Amylase inhibition (DNS method, soluble starch); type: biochemical; details: comparison among the anthocyanins / proanthocyanidin fractions
T2 construct: purchased Sigma‐Aldrich, Inc (Shanghai, China)
T2 sequence (P04746 16-511): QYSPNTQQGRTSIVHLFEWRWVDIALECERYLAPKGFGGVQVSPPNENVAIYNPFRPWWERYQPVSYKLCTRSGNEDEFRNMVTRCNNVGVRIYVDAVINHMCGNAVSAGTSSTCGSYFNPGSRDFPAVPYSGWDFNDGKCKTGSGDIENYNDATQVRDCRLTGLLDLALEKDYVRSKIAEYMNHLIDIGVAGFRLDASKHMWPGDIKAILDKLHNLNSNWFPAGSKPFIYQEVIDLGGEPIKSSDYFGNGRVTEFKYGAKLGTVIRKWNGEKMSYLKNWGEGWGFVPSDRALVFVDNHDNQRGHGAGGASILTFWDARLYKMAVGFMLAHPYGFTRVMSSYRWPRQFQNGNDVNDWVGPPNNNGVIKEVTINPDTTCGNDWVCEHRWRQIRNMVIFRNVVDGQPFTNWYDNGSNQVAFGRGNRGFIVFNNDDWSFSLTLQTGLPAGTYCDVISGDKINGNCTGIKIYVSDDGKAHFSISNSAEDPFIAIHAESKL
Text: as §1, with “Amberlite XAD7HP, Sephadex LH‐20, and ENVI 18 DSK SPE were obtained from Sigma‐Aldrich, Inc (Shanghai, China).” left out
α‐Amylase inhibitory activity was determined using the method from Tan et al. ([2017]), with a slight modification as Table 1 indicates. […] Then, 200 μL of the mixture was taken and added to a 96‐well plate and the absorption at 540 nm was determined. To eliminate the background absorbance produced by the fractionated compounds, an appropriate extract control without enzyme was included. α‐Amylase inhibitory activity was measured at five different concentrations, and a logarithmic regression curve was established to calculate IC50 values (mg/mL) (Tan et al., [2017]). The α‐amylase inhibitory activity was expressed as function 2 and the As, Ab, At, and Ac indicated the absorbance in different solutions as shown in Table 1. […]

[3] = nf, not found, ref Worsztynowicz et al., 2014
[4] = ref Akkarachiyasit et al., 2010

Compound | IC50 values Lipase (Lipase; [3]) | inhibition effect on lipase (in words) [1] | IC50 values α‐Glucosidase (α‐Glucosidase; ref Bräunlich et al., 2013) | IC50 values α‐Amylase (α‐Amylase; [3]) | inhibition effect on α‐amylase (in words) [2] | IC50 values α‐Glucosidase (α‐Glucosidase; for sucrose, ref Adisakwattana et al., 2009) | IC50 (α‐Amylase; [4]) | IC50 values Lipase (Lipase; ref Vijayaraj et al., 2019) | IC50 values α‐Glucosidase (α‐Glucosidase; for sucrose, ref Akkarachiyasit et al., 2010) | IC50 values α‐Amylase (α‐Amylase; [4])
Oc1cc(O)c2cc(OC3OCC(O)C(O)C3O)c(-c3ccc(O)c(O)c3)[o+]c2c1 (centres unmarked) [Cyanidin 3‐arabinoside, cyanidin 3‐arabinoside] | nf (Worsztynowicz et al., [2014]) | no inhibition effects | 0.37 ± 0.08 μg/mL (Bräunlich et al., [2013]) | 3.98 ± 0.10 mg/mL (Worsztynowicz et al., [2014]) |  |  |  |  |  | 
Oc1cc(O)c2cc(OC3OCC(O)C(O)C3O)c(-c3ccc(O)c(O)c3)[o+]c2c1 (centres unmarked) [Cyanidin 3‐xyloside, cyanidin 3‐xyloside] | nf (Worsztynowicz et al., [2014]) | no inhibition effects | 5.5 ± 1.6 μg/mL (Bräunlich et al., [2013]) | nf (Worsztynowicz et al., [2014]) | no effect |  |  |  |  | 
OCC1OC(Oc2cc3c(O)cc(O)cc3[o+]c2-c2ccc(O)c(O)c2)C(O)C(O)C1O (centres unmarked) [Cyanidin 3‐galactoside, cyanidin 3‐galactoside] | nf (Worsztynowicz et al., [2014]) | no inhibition effects | 1.54 ± 0.1 µg/mL | 5.16 ± 0.06 mg/mL |  | 224.5 ± 22.45 µg/mL | > 1 mM |  |  | 
OCC1OC(Oc2cc3c(O)cc(O)cc3[o+]c2-c2ccc(O)c(O)c2)C(O)C(O)C1O (centres unmarked) [Cyanidin 3‐glucoside, cyanidin 3‐glucoside] | 1170 ± 40 µg/mL | strongest inhibition effects | 0.87 ± 0.2 µg/mL | 1.74 ± 0.04 mg/mL | strongest inhibition effects |  |  | 84.54 ± 2.94 µg/mL | 435.53 ± 22.45 µg/mL | 0.1347 ± 0.00449 mg/mL
